# Reference: patent US5643887A, “Daunomycin derivative with reduced cytotoxicity toward normal cells” (The Scripps Research Institute, priority 1995, dated 1997)
# Experiments:
# [1] = tested on: Ovcar-3 (ovarian carcinoma); assay: Sulforhodamine B cytotoxicity assay, Ovcar-3; type: cell-based; settings: Homo sapiens, transformed, 72 hours
# Experimental: (§1) 1. Preparation of target cells in 96-well plates
# (§2) 2. Preparation of sample drugs and toxic control a. Stock drug solutions were prepared by dissolving drug in the appropriate solvent (determined during chemical characterization studies) and sterile filtering the drug-solvent solution through a sterile 0.2 μ filter unit. An aliquot was taken from each filtered drug solution and the O.D. was measured to determine the drug concentration. […]
# (§3) b. Dilute the stock drug solution prepared above with T.C. medium to the desired initial concentration (10^-2 -10^-4 M). A minimum volume of 220 μL of diluted drug is required per 96-well plate used in the assay.
# (§4) 3. Addition of Sample Compounds and Controls to 96-well Plates b. Add 100 μL of the initial .compound dilution to adjacent duplicate wells in Columns #2. (Four materials can be tested in duplicate per 96-well plate.) c. Remove 10 μL of diluted compound from the wells in Column #2 and transfer to the corresponding wells in Column #3. Mix by pipetting up and down gently approximately five times. d. Transfer 10 μL to the appropriate wells in Column #4 and continue to make […] dilutions of compound across the plate through Column #12. f. Incubate (37° C., 5-10 percent CO2 in humidified incubator) plates for a total of 72 hours. […]
# (§5) IC50 values; i.e., the concentration of Compound required to kill one-half of the treated cells, were then calculated. […]
# [2] = tested on: MCF-7 (breast carcinoma); assay: Sulforhodamine B cytotoxicity assay, MCF-7; type: cell-based; settings: Homo sapiens, MCF7, transformed, 72 hours
# Experimental: as §1, §2, §3, §4, §5
# [3] = tested on: HMEC (human mammary epithelial cells); assay: Sulforhodamine B cytotoxicity assay, HMEC; type: cell-based; settings: non-transformed, 72 hours
# Experimental: as §1, §2, §3, §4
# (§6) IC50 values; i.e., the concentration of Compound required to kill one-half of the treated cells, were then calculated.
# [4] = tested on: NHDF (normal human dermal fibroblasts); assay: Sulforhodamine B cytotoxicity assay, NHDF; type: cell-based; settings: non-transformed, 72 hours
# Experimental: as §1, §2, §3, §4, §6
# [5] = tested on: HL-60 (promyelocytic leukemia); assay: Sulforhodamine B cytotoxicity assay, HL-60; type: cell-based; settings: Homo sapiens, transformed, 72 hours
# Experimental: as §1, §2, §3, §4, §5
# [6] = tested on: EMT-6 mammary tumor cells; assay: In vivo mouse study, EMT-6 mammary tumor
# Experimental: FIG. 1 is a graph showing the average tumor size in 6-10 week old female Balb/c BYJ mice inoculated with EMT-6 mammary tumor cells. Control mice (open squares) were treated with normal saline on days 1, 5 and 9 after inoculation. Study mice (X's) were treated with an equal volume of normal saline containing 15 mg/kg of Compound I on those same days post inoculation with the tumor cells.
# The data of FIG. 1 illustrate an in vivo study using Compound 1. Here, groups of 6-10 week old, female Balb/c BYJ mice (obtained from The Scripps Research Institute breeding colony, La Jolla, Calif.) (8 per group) were inoculated with 5×10^5 cells of the EMT6 tumor cell line, a mammary tumor. The mice were then treated with normal saline (control) or normal saline containing 15 mg/kg of Compound 1 (study) on days 1, 5 and 9 after the inoculation.
# The average tumor volume was then calculated for each group of mice.
# [7] = tested on: SK-Mel-28 (melanoma); assay: Sulforhodamine B cytotoxicity assay, SK-Mel-28; type: cell-based; settings: Homo sapiens, transformed, 72 hours
# Experimental: as §1, §2, §3, §4, §5
# [8] = tested on: Copan-1 (pancreatic carcinoma); assay: Sulforhodamine B cytotoxicity assay, Copan-1; type: cell-based; settings: transformed, 72 hours
# Experimental: as §1, §2, §3, §4, §5
# [9] = tested on: P-388 (mouse leukemia); assay: Sulforhodamine B cytotoxicity assay, P-388; type: cell-based; settings: P388, transformed, 72 hours
# Experimental: as §1, §2, §3, §4, §5
# [10] = tested on: PBL (human peripheral blood lymphocytes); assay: Sulforhodamine B cytotoxicity assay, PBL; type: cell-based; settings: Lymphocyte, non-transformed, 72 hours
# Experimental: as §1, §2, §3, §4, §6
# [11] = tested on: HT-29 (colon carcinoma); assay: Sulforhodamine B cytotoxicity assay, HT-29; type: cell-based; settings: Homo sapiens, transformed, 72 hours
# Experimental: as §1, §2, §3, §4, §5
# [12] = tested on: UCLA-P3 (lung carcinoma); assay: Sulforhodamine B cytotoxicity assay, UCLA-P3; type: cell-based; settings: Homo sapiens, UCLA P-3, transformed, 72 hours
# Experimental: as §1, §2, §3, §4, §6
# [13] = tested on: CHO cells; assay: Sulforhodamine B cytotoxicity assay, CHO; type: cell-based; settings: Cricetulus griseus, non-transformed, 72 hours
# Experimental: as §1, §2, §3, §4, §5
# [14] = tested on: MOLT-4 (T cell leukemia); assay: Sulforhodamine B cytotoxicity assay, MOLT-4; type: cell-based; settings: Homo sapiens, transformed, 72 hours
# Experimental: as §1, §2, §3, §4, §5
# [15] = tested on: transformed, cancerous cell lines; assay: Cytotoxicity comparison with daunomycin, cancer cell lines; type: cell-based
# Experimental: SULFORHODAMINE B CYTOTOXICITY ASSAY
# as §6
# All other cells or cell lines were obtained from the American Type Culture Collection (ATCC) (all except CHO cells are human or mouse cancer cell lines as described by the ATCC).
# [16] = LD50 in mice; settings: mouse, in vivo, ip, here found
# Experimental: Daunomycin has a reported LD50 in mice of 20 mg/kg when administered intravenously (i.v.) and 5 mg/kg when administered intraperitoneally (i.p.) [Merck Index, 11th ed., Merck & Co., Inc., Rahway, N.J., page 445 (1989)].
# [17] = tested on: mice; settings: i.v., Merck Index; cited from earlier work
# [18] = first four cancer cell lines (two leukemias and two carcinomas)
SMILES,IC50 [1] [nM],IC50 [2] [nM],IC50 [3] [µM],IC50 [4] [µM],IC50 [5] [nM],IC50 [7] [nM],IC50 [8] [nM],IC50 [9] [nM],IC50 [10] [µM],IC50 [11] [nM],IC50 [12] [nM],IC50 [13] [µM],IC50 [14] [nM],"potency relative to daunomycin [15, 18]",LD50 [16] [mg/kg],further results
"COc1cccc2c1C(=O)c1c(O)c3c(c(O)c1C2=O)C[C@@](O)(C(C)=O)C[C@@H]3O[C@H]1C[C@H](NC(=O)OCCS(=O)(=O)c2ccccc2)[C@H](O)[C@H](C)O1 [Compound 1, 8-Acetyl-10-[[3-[N-[2-(phenylsulfonyl)-ethoxycarbonyl]]amino-2,4,6-trideoxy-1-lyxo-hexapyranosyl]oxy]-7,8,9,10-tetrahydro-6,8,11-trihydroxy-1-methoxy-5,12-naphthacenedione]",1600,780,13,13,98,3100,780,780,25,780,3100,6.3,1,same potencies,~35,"tumor burden of treated mice vs control ([6]; 15 mg/kg on days 1, 5 and 9, between days 14 and 16): about one-third the tumor burden of the control group; average tumor volume vs control ([6]; 15 mg/kg on days 1, 5 and 9, by day 8 post inoculation): slight difference in the average volume of the tumors, with the study group having a lower tumor burden; control group's average tumor volume relative to study group ([6]; 15 mg/kg on days 1, 5 and 9, by day 20 post inoculation): about twice that of the study group; growth of mammary tumors ([6]; EMT-6 implanted in mice): retarded the growth of mammary tumors; cancer cell cytotoxicity difference between Compound 1 and daunomycin ([15]; cancer cells): no difference to a four-fold difference; potency relative to daunomycin ([15]; final two carcinoma cell lines): about one-fourth the potency of daunomycin; potency relative to daunomycin ([15]; second three cancer cell lines (melanoma, pancreatic carcinoma and mouse leukemia)): about one-half the potency of daunomycin"
COc1cccc2c1C(=O)c1c(O)c3c(c(O)c1C2=O)C[C@@](O)(C(C)=O)C[C@@H]3O[C@H]1C[C@H](N)[C@H](O)[C@H](C)O1 [Daunomycin],390,780,0.39,0.19,< 98,1600,390,390,0.78,780,730,0.39,1,same potencies,~12,LD50 [17]: 20 mg/kg
